Experimental data: article PMC11173529, “Structure–Activity Relationship Studies in a Series of Xanthine Inhibitors of SLACK Potassium Channels” (Molecules, 2024)

These molecules were tested against T1, KV2.1 (Homo sapiens, UniProt Q14721) (assay: Tl+-flux selectivity panel in HEK-293 cells: KV2.1). Settings: HEK293, 10 µM test compound, relative to control guangxitoxin 1E, read-out: Percent Inhibition ± SEM.
T1 construct: expressed in transfected cells; host or cells: HEK293
T1 sequence (Q14721 1-858): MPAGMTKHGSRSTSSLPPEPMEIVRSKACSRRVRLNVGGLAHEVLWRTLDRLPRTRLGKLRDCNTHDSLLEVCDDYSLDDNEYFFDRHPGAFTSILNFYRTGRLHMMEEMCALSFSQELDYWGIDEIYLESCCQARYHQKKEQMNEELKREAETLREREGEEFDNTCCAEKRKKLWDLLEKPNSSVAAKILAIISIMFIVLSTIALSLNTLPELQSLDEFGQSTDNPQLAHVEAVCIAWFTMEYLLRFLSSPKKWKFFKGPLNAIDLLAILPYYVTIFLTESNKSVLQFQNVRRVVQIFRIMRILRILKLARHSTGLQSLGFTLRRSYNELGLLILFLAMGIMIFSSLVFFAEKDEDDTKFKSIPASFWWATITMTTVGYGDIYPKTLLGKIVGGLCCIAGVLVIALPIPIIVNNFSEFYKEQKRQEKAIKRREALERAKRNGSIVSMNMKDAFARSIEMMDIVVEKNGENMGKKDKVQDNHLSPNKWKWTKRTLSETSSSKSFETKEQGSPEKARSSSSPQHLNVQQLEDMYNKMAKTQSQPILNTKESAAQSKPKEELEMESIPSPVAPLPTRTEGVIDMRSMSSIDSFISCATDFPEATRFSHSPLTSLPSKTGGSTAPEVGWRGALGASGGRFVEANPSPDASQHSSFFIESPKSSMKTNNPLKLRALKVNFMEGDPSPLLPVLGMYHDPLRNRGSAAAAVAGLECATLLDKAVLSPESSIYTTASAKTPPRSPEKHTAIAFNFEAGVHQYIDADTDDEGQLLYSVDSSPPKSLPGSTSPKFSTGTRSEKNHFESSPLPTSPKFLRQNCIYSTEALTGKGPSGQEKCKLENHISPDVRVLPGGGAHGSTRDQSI
Assay type: cell-based
Protocol: (§1) With a handful of analogs that offered improved SLACK potency relative to hit compound 8, we next proceeded to investigate the ancillary pharmacology of such compounds, both with respect to other Slo family members as well as versus a spectrum of diverse ion channels (Table 5). Thus, we screened four compounds (32, 48, 70, and 71) at 10 µM in our in-house selectivity panel of Tl^+-flux assays in HEK-293 cells stably expressing the target of interest. […] Some valuable SAR was noted as well. […] Reduction of inhibition at Maxi-K α1/β4 also followed. This SAR will be important to bear in mind for continued optimization within this series. […] Of particular note is the lack of significant hERG activity in this series, as activity versus that counter-target has been an issue with other SLACK inhibitors.
(§2) Stably transfected monoclonal HEK293 cell lines expressing Slick, Maxi-K α1/β3, Maxi-K α1/β4, CaV3.2, GIRK 1/2, KV2.1, KV7.2, NaV1.7, and TASK-1 were generated as previously described. Stably transfected monoclonal HEK293 cell lines expressing hERG were generated as previously described. CHO-K1 cells expressing human Slack and disease-associated human Slack mutations, G288S and A934T, were generated by transfecting a PiggyBac TRE mammalian expression vector (VectorBuilder, Chicago, IL, USA) containing KCNT1. FuGENE 6 (Promega, Madison, WI, USA) transfection reagent and protocol, together with Opti-MEM (Thermo Fisher Scientific, Walkham, MA, USA), were utilized.
(§3) The Tl^+ flux assays were conducted as previously described with modifications optimized for individual cell lines as described below. Following removal of cell culture media, cells were loaded with Tl^+-sensitive dye loading solution containing Thallos-AM (ION Biosciences, San Marcos, TX, USA), 1.25 mM Probenecid, and 0.3% Pluronic F-127 (MilliporeSigma, Burlington, MA, USA), in assay buffer comprised of Hanks Balanced Salt Solution (HBSS) (Thermo Fisher Scientific, Waltham, MA, USA) and 20 mM HEPES (Corning, Corning, NY, USA) at room temperature for one-hour. Dye loading solution was replaced with 20 μL/well of assay buffer prior to assaying. Cell plates were then loaded onto a Panoptic kinetic imaging plate reader (WaveFront Biosciences, Franklin, TN, USA). Data were acquired at 5 Hz (excitation 482 ± 35 nm, emission 536 ± 40 nm) for 10 s, at which time 20 μL/well of test compounds in assay buffer at 2-fold above the desired final concentration was added and allowed to incubate for 120 s. Next, 10 μL/well of Tl^+ stimulus buffer (129 mM Na gluconate, 1.2 mM CaSO4, 1 MgSO4, 1 mM Na2HPO4, 4.17 mM NaHCO3, 5.56 mM glucose, 2.5 mM Tl2SO4, and 10 mM HEPES pH 7.3) was added. Imaging was concluded after an additional 120 s.

Question: Which inhibition at 10 µM does the source give for `COc1cccc(Cn2c(=O)c3c(nc(N(C)Cc4ccccc4)n3C)n(C)c2=O)c1` [Analog 32] here?
Answer: Its inhibition at 10 µM is 51 ± 1.5%.

Question: `CN(Cc1cccc(F)c1)c1nc2c(c(=O)n(Cc3ccccc3)c(=O)n2C)n1C` [Analog 48] was tested. Which inhibition at 10 µM did it give?
Answer: Its inhibition at 10 µM is 51 ± 1.2%.

Question: How did the inhibition at 10 µM turn out when `CCCCN(Cc1ccccc1)c1nc2c(c(=O)n(Cc3ccccc3)c(=O)n2C)n1C` [Analog 70] was run?
Answer: Its inhibition at 10 µM is 35 ± 1.3%.

Question: With `Cn1c(N(Cc2ccccc2)CC2CC2)nc2c1c(=O)n(Cc1ccccc1)c(=O)n2C` [Analog 71] as the molecule, how does the inhibition at 10 µM read?
Answer: The inhibition at 10 µM was 33 ± 1.2%.

What follows are molecules tested against T2, GIRK 1/2 (Homo sapiens, UniProt P48051+P48549) (assay: Tl+-flux selectivity panel in HEK-293 cells: GIRK 1/2). Settings: HEK293, 10 µM test compound, relative to control SCH23390, read-out: Percent Inhibition ± SEM.
T2 construct: expressed in transfected cells; host or cells: HEK293
T2 sequence (P48549 1-501): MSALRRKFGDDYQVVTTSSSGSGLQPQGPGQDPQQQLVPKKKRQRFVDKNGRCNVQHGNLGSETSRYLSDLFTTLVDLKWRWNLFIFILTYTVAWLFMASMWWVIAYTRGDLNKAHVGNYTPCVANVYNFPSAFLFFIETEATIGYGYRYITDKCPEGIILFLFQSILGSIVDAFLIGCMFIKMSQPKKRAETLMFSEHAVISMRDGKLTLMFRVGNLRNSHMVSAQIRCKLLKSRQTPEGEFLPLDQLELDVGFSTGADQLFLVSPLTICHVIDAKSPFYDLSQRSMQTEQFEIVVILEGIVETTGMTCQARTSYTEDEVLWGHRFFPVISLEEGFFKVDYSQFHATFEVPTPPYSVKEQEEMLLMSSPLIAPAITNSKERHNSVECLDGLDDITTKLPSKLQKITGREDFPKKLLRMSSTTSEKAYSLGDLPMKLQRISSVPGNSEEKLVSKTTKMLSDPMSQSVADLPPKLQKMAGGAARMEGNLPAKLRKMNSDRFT
T2 sequence (P48051 1-423): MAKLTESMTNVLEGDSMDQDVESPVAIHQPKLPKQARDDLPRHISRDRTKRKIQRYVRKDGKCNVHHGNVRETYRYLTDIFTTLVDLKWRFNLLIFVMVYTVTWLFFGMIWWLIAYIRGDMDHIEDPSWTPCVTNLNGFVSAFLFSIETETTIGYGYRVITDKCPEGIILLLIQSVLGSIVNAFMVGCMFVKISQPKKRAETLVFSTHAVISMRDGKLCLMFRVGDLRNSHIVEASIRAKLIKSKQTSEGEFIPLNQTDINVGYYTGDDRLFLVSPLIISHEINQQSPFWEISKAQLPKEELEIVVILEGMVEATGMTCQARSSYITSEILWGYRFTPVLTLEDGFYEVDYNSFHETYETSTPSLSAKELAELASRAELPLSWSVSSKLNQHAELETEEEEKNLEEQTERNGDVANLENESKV
Assay type: cell-based
Protocol: as §1, §2, §3

Question: With `COc1cccc(Cn2c(=O)c3c(nc(N(C)Cc4ccccc4)n3C)n(C)c2=O)c1` [Analog 32] as the molecule, how does the inhibition at 10 µM read?
Answer: Its inhibition at 10 µM is 19 ± 1.7%.

Question: With `CN(Cc1cccc(F)c1)c1nc2c(c(=O)n(Cc3ccccc3)c(=O)n2C)n1C` [Analog 48] as the molecule, how does the inhibition at 10 µM read?
Answer: Its inhibition at 10 µM is 32 ± 3%.

Question: For `CCCCN(Cc1ccccc1)c1nc2c(c(=O)n(Cc3ccccc3)c(=O)n2C)n1C` [Analog 70], which inhibition at 10 µM is on record?
Answer: Its inhibition at 10 µM is 9.2 ± 1.4%.

Question: `Cn1c(N(Cc2ccccc2)CC2CC2)nc2c1c(=O)n(Cc1ccccc1)c(=O)n2C` [Analog 71] was tested. Which inhibition at 10 µM did it give?
Answer: Its inhibition at 10 µM is 12 ± 0.5%.
